What follows are molecules tested against T1, SARM1 (50-724) (Homo sapiens, UniProt Q6SZW1) (assay: biochemical).
T1 sequence (Q6SZW1 50-724): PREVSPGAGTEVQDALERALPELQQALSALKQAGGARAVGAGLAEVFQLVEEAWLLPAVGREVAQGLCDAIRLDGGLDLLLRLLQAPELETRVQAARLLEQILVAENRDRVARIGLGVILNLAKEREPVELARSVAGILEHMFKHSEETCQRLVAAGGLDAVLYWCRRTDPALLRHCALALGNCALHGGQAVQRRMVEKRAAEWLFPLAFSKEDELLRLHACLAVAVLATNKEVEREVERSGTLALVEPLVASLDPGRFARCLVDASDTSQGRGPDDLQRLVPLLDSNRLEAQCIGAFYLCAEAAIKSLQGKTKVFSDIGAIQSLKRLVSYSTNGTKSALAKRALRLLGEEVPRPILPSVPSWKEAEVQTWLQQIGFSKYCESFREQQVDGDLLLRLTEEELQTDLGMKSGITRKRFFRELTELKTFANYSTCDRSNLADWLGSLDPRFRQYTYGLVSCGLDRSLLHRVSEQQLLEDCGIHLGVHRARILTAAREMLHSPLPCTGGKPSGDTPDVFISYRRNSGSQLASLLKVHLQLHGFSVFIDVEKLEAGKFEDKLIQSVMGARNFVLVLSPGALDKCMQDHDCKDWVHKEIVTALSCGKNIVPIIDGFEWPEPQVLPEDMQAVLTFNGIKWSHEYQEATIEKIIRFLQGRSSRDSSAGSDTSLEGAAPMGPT
Description: An enzymatic assay was performed in a 384-well plate using Dulbecco's phosphate-buffered saline (PBS) as the reaction buffer. […] The reaction was initiated by adding a mixture of 200 μM nicotinamide mononucleotide (NMN) as activator and 100 μM NAD^+ as substrate. After 1 h of incubation at room temperature, the reaction was terminated with 10 times volume of 70% acetonitrile, then centrifuged at 3800 rpm for 10 min.

| SMILES | IC50 [nM] |
| --- | --- |
| O=S(=O)(Nc1cc(F)c2cn[nH]c2c1)c1cccc(Cl)c1Cl [Compound 74, 2,3-dichloro-N-(4-fluoro-1H-indazol-6-yl)benzenesulfonamide] | 100 to 500 |
| O=C1NC(CO)CCc2ccc(NS(=O)(=O)c3cccc(Cl)c3Cl)cc21 (single isomer, unassigned) [Compound 304] | < 100 |
| CC(Nc1ccc2cn[nH]c(=O)c2c1)c1c(Cl)ccc(Cl)c1Cl (racemic) [Example 198, 7-((1-(2,3,6-trichlorophenyl)ethyl)amino)phthalazin-1(2H)-one] | < 100 |
| Cc1cc(S(=O)(=O)Nc2ccc3c(c2)C(=O)NCC3)c(F)cc1F [Compound 30, 2,4-difluoro-5-methyl-N-(1-oxo-1,2,3,4-tetrahydroisoquinolin-7-yl)benzenesulfonamide] | 100 to 500 |
| O=S(=O)(Nc1ccc2c(C3CC3)n[nH]c2c1)c1cccc(Cl)c1Cl [Compound 88, 2,3-dichloro-N-(3-cyclopropyl-1H-indazol-6-yl)benzenesulfonamide] | < 100 |
| CC(Nc1ccc2cc[nH]c(=O)c2c1)c1cccc(F)c1 (racemic) [Example 113, 7-((1-(3-fluorophenyl)ethyl)amino)isoquinolin-1(2H)-one] | 500 to 1000 |
| Cc1cccc(S(=O)(=O)Nc2ccc3c(c2)C(=O)NCC3)c1C [Compound 50, 2,3-dimethyl-N-(1-oxo-1,2,3,4-tetrahydroisoquinolin-7-yl)benzenesulfonamide] | 100 to 500 |
| CC(Nc1ccc2cc[nH]c(=O)c2c1)c1cc(F)cc(F)c1 (racemic) [Example 114, 7-((1-(3,5-difluorophenyl)ethyl)amino)isoquinolin-1(2H)-one] | 100 to 500 |
| COc1ccc(NS(=O)(=O)c2cccc(Cl)c2Cl)cc1C(N)=O [Compound 86, 5-((2,3-dichlorophenyl)sulfonamido)-2-methoxybenzamide] | 100 to 500 |
| CC1(C)CNC(=O)c2cc(NS(=O)(=O)c3cccc(Cl)c3Cl)ccc21 [Compound 265, 2,3-dichloro-N-(4,4-dimethyl-1-oxo-1,2,3,4-tetrahydroisoquinolin-7-yl)benzenesulfonamide] | < 100 |
| Cc1ccc(F)cc1S(=O)(=O)Nc1ccc2c(c1)C(=O)NCC2 [Compound 10, 5-fluoro-2-methyl-N-(1-oxo-1,2,3,4-tetrahydroisoquinolin-7-yl)benzenesulfonamide] | > 1000 |
| O=C1NCCc2ccc(NS(=O)(=O)c3c(F)cc(F)cc3F)cc21 [Compound 38, 2,4,6-trifluoro-N-(1-oxo-3,4-dihydro-2H-isoquinolin-7-yl)benzenesulfonamide] | > 1000 |
| O=C1NCCc2ccc(NS(=O)(=O)c3cc(F)cc(F)c3F)cc21 [Compound 51, 2,3,5-trifluoro-N-(1-oxo-3,4-dihydro-2H-isoquinolin-7-yl)benzenesulfonamide] | > 1000 |
| CC1(C)C(=O)N(CC(=O)N2CCOCC2)c2cc(NS(=O)(=O)c3cccc(Cl)c3Cl)ccc21 [Example 291, 2,3-dichloro-N-(3,3-dimethyl-1-(2-morpholino-2-oxoethyl)-2-oxoindolin-6-yl)benzenesulfonamide] | < 100 |
| O=S(=O)(Nc1ccc2ccccc2n1)c1cccc(Cl)c1Cl [Compound 60, 2,3-dichloro-N-(quinolin-2-yl)benzenesulfonamide] | > 1000 |
| Cc1ccc(F)cc1C(C)Nc1ccc2c(c1)C(=O)NCC2 (racemic) [Example 105, 7-((1-(5-fluoro-2-methylphenyl)ethyl)amino)-3,4-dihydroisoquinolin-1(2H)-one] | 100 to 500 |
| Cn1ccc(C(=O)N2CC(C)(C)c3ccc(NS(=O)(=O)c4cccc(Cl)c4Cl)cc32)n1 [Compound 295, 2,3-dichloro-N-(3,3-dimethyl-1-(1-methyl-1H-pyrazole-3-carbonyl)indolin-6-yl)benzenesulfonamide] | < 100 |
| CC1CCC(C)N(S(=O)(=O)Nc2ccc3c(c2)C(=O)NCC3)C1 (mixture of isomers) [Example 172, 2,5-dimethyl-N-(1-oxo-1,2,3,4-tetrahydroisoquinolin-7-yl)piperidine-1-sulfonamide] | > 1000 |
| Cc1c(F)cccc1S(=O)(=O)Nc1cccc(-c2ccccn2)c1 [Example 160, 3-fluoro-2-methyl-N-(3-(pyridin-2-yl)phenyl)benzenesulfonamide] | 500 to 1000 |
| CCC(C(N)=O)c1ccc(NS(=O)(=O)c2cccc(Cl)c2Cl)cc1 (single isomer, unassigned) [Compound 270A] | 100 to 500 |

| SMILES | IC50 [nM] |
| --- | --- |
| Cc1n[nH]c2cc(NC(C)c3nc(Cl)c(Cl)s3)ccc12 (racemic) [Compound 261, N-(1-(4,5-dichlorothiazol-2-yl)ethyl)-3-methyl-1H-indazol-6-amine] | < 100 |
| CC1(C)CCCCN1S(=O)(=O)Nc1ccc2c(c1)C(=O)NCC2 [Example 168, 2,2-dimethyl-N-(1-oxo-1,2,3,4-tetrahydroisoquinolin-7-yl)piperidine-1-sulfonamide] | > 1000 |
| CC(Nc1ccc2cc[nH]c(=O)c2c1)c1nn2c(c1Cl)CCC2 (racemic) [Example 221, 7-((1-(3-chloro-5,6-dihydro-4H-pyrrolo[1,2-b]pyrazol-2-yl)ethyl)amino)isoquinolin-1(2H)-one] | 100 to 500 |
| CC(Nc1ccc2ccn(CC(N)=O)c(=O)c2c1)c1nn(C)c(C2CC2)c1Cl (racemic) [Compound 315, 2-(7-((1-(4-chloro-5-cyclopropyl-1-methyl-1H-pyrazol-3-yl)ethyl)amino)-1-oxoisoquinolin-2(1H)-yl)acetamide] | < 100 |
| CC(Nc1ccc2c(C(F)(F)F)n(CC(N)=O)nc2c1)c1nc(Cl)c(Cl)s1 (single isomer, unassigned) [Compound 368] | > 1000 |
| Cc1nn(CC(N)=O)c2cc(NC(C)c3nc(Cl)c(Cl)s3)cc(F)c12 (racemic) [Compound 337, 2-(6-((1-(4,5-dichlorothiazol-2-yl)ethyl)amino)-4-fluoro-3-methyl-1H-indazol-1-yl)acetamide] | < 100 |
| Cc1c2c(F)cc(NC(C)c3c(F)ccc(Cl)c3Cl)cc2nn1CC(N)=O (racemic) [Compound 364, 2-(6-((1-(2,3-dichloro-6-fluorophenyl)ethyl)amino)-4-fluoro-3-methyl-2H-indazol-2-yl)acetamide] | < 100 |
| Cc1c2c(F)cc(NC(C)c3nc(Cl)c(Cl)s3)cc2nn1CC(N)=O (single isomer, unassigned) [Compound 390] | > 1000 |
| Cc1nc2cc(NS(=O)(=O)c3cccc(Cl)c3Cl)ccc2s1 [Compound 29, 2,3-dichloro-N-(2-methylbenzo[d]thiazol-5-yl)benzenesulfonamide] | 100 to 500 |
| CC(Nc1ccc2nc[nH]c(=O)c2c1)c1cccc(Cl)c1Cl (racemic) [Example 128, 6-((1-(2,3-dichlorophenyl)ethyl)amino)quinazolin-4(3H)-one] | < 100 |
| CC(Nc1ccc2c(c1)NC(=O)C21CC1)c1nc(Cl)c(Cl)s1 (racemic) [Example 244, 6′-((1-(4,5-dichlorothiazol-2-yl)ethyl)amino)spiro[cyclopropane-1,3′-indolin]-2′-one] | < 100 |
| CC(Nc1ccc2ccn(CC(N)=O)c(=O)c2c1)c1nc(Cl)c(Cl)s1 (racemic) [Compound 290, 2-(7-((1-(4,5-dichlorothiazol-2-yl)ethyl)amino)-1-oxoisoquinolin-2(1H)-yl)acetamide] | < 100 |
| CC(Nc1cccc(-c2cccnn2)c1)c1cccc(Cl)c1Cl (racemic) [Example 150, N-(1-(2,3-dichlorophenyl)ethyl)-3-(pyridazin-3-yl)aniline] | > 1000 |
| O=C1NC(CO)CCc2ccc(NS(=O)(=O)c3cccc(Cl)c3Cl)cc21 (racemic) [Compound 304A, 2,3-dichloro-N-(3-(hydroxymethyl)-1-oxo-2,3,4,5-tetrahydro-1H-benzo[c]azepin-8-yl)benzenesulfonamide] | < 100 |
| Cc1n[nH]c(=O)c2cc(NC(CC(O)CCO)c3nc(Cl)c(Cl)s3)ccc12 (mixture of isomers) [Example 293, 7-((1-(4,5-dichlorothiazol-2-yl)-3,5-dihydroxypentyl)amino)-4-methylphthalazin-1(2H)-one] | 100 to 500 |
| CC1(C)C(=O)N(CC(=O)O)c2cc(NS(=O)(=O)c3cccc(Cl)c3Cl)ccc21 [Compound 241, 2-[6-[(2,3-dichlorophenyl)sulfonylamino]-3,3-dimethyl-2-oxo-indolin-1-yl]acetic Acid] | < 100 |
| CC1(C)C(=O)N(CCC(N)=O)c2cc(NS(=O)(=O)c3cccc(Cl)c3Cl)ccc21 [Compound 279, 3-(6-((2,3-dichlorophenyl)sulfonamido)-3,3-dimethyl-2-oxoindolin-1-yl)propanamide] | < 100 |
| CC(Nc1ccc2cc[nH]c(=O)c2n1)c1cc(F)cc(Cl)c1Cl (racemic) [Example 205, 2-((1-(2,3-dichloro-5-fluorophenyl)ethyl)amino)-1,7-naphthyridin-8(7H)-one] | < 100 |
| Cc1n[nH]c(=O)c2cc(NC(C)c3nccc(Cl)c3Cl)ccc12 (racemic) [Compound 266, 7-((1-(3,4-dichloropyridin-2-yl)ethyl)amino)-4-methylphthalazin-1(2H)-one] | < 100 |
| O=C1Cc2ccc(NS(=O)(=O)c3cccc(Cl)c3Cl)cc2CN1 [Compound 217, 2,3-dichloro-N-(3-oxo-1,2,3,4-tetrahydroisoquinolin-7-yl)benzenesulfonamide] | 100 to 500 |
